In US11000033B2, “Ketone or oxime compound, and herbicide” (NISSAN CHEMICAL CORPORATION, priority 2014, dated 2021):

What was measured:
Format in all cases: in vivo
Veronica persica [1] = test: Test Example 4: herbicidal effect by soil treatment (symbol R); conditions: application herbicide amount 320 g/ha
Outline: (§1)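 Seeds were sown in sterilized diluvial soil, covered with about 1.5 cm of soil, and the soil surface was sprayed with a water-diluted emulsion of the compound at a predetermined rate. Plants grew in a greenhouse at 25° C. to 30° C.; effects were scored visually 3 weeks after application.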

beet [2] = test: Test Example 5: effect on crop by foliage application, plastic box (symbol f); conditions: 320 g/ha, 3 weeks after application
Outline: (§2)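 Foliage-application test plants come from spot sowing in sterilized diluvial soil under a soil layer of about 1.5 cm, grown at 25° C. to 30° C. in a greenhouse.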

Galium spurium [3] = test: Test Example 5: herbicidal effect by foliage application, plastic box (symbol Q); conditions: 320 g/ha, 3 weeks after application
Outline: (§3)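 Herbicide, formulated as an emulsion and diluted in water, is sprayed onto the aerial parts of 14-day seedlings. These were grown at 25° C. to 30° C. in sterilized diluvial soil; effects are graded after 3 weeks.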

corn = test: Test Example 4: effect on crop by soil treatment (symbol c); conditions: application herbicide amount 320 g/ha
Outline: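 Plants are raised in a greenhouse (25° C. to 30° C.) from spot-sown seed, which sits under about 1.5 cm of sterilized diluvial soil in a box shared with weed species.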

Stellaria media [4] = test: Test Example 5: herbicidal effect by foliage application, plastic box (symbol P); conditions: 320 g/ha, 3 weeks after application
Outline: as §3

Setaria viridis = test: Test Example 5: herbicidal effect by foliage application, plastic box (symbol G); conditions: 320 g/ha, 3 weeks after application
Outline: as §3

Alopecurus myosuroides = test: Test Example 4: herbicidal effect by soil treatment (symbol J); conditions: application herbicide amount 320 g/ha
Outline: as §1

Apera spica-venti = test: Test Example 5: herbicidal effect by foliage application, plastic box (symbol L); conditions: 320 g/ha, 3 weeks after application
Outline: as §3

Chenopodium album = test: Test Example 5: herbicidal effect by foliage application, plastic box (symbol O); conditions: 320 g/ha, 3 weeks after application
Outline: as §3

[5] = system: directly sowed rice plant; test: Test Example 3: effect on crop by foliage application, Wagner pot (symbol b); conditions: application herbicide amount 320 g/ha, Table 24
Outline: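 Greenhouse culture at 25–30 °C of seeded rice, Cyperus difformis, Leptochloa chinensis and Echinochloa crus-galli var. crus-galli, in alluvial soil held under 0.1–0.5 cm of water in a Wagner pot.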

Digitaria ciliaris [6] = test: Test Example 5: herbicidal effect by foliage application, plastic box (symbol F); conditions: 320 g/ha, 3 weeks after application
Outline: as §3

Digitaria ciliaris [7] = test: Test Example 4: herbicidal effect by soil treatment (symbol F); conditions: application herbicide amount 320 g/ha
Outline: as §1

rice = test: Test Example 4: effect on crop by soil treatment (symbol b); conditions: application herbicide amount 320 g/ha
Outline: (§4)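 Soil-treatment setup: crop and weed seeds were spot-sown into sterilized diluvial soil, then buried beneath approximately 1.5 cm of it, and the boxes were housed in a 25–30° C. greenhouse.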

Galium spurium [8] = test: Test Example 4: herbicidal effect by soil treatment (symbol Q); conditions: application herbicide amount 320 g/ha
Outline: as §1

Abutilon theophrasti = test: Test Example 5: herbicidal effect by foliage application, plastic box (symbol M); conditions: 320 g/ha, 3 weeks after application
Outline: as §3

[9] = system: Echinochloa crus-galli var. crus-galli; test: Test Example 4: herbicidal effect by soil treatment (symbol H); conditions: application herbicide amount 320 g/ha
Outline: as §1

Veronica persica [10] = test: Test Example 5: herbicidal effect by foliage application, plastic box (symbol R); conditions: 320 g/ha, 3 weeks after application
Outline: as §3

Lolium multiflorum Lam. = test: Test Example 4: herbicidal effect by soil treatment (symbol K); conditions: application herbicide amount 320 g/ha
Outline: as §1

rapeseed = test: Test Example 4: effect on crop by soil treatment (symbol g); conditions: application herbicide amount 320 g/ha
Outline: as §4

wheat = test: Test Example 5: effect on crop by foliage application, plastic box (symbol e); conditions: 320 g/ha, 3 weeks after application
Outline: as §2

beet [11] = test: Test Example 4: effect on crop by soil treatment (symbol f); conditions: application herbicide amount 320 g/ha
Outline: as §4

soybean = test: Test Example 4: effect on crop by soil treatment (symbol d); conditions: application herbicide amount 320 g/ha
Outline: as §4

Avena fatua = test: Test Example 5: herbicidal effect by foliage application, plastic box (symbol I); conditions: 320 g/ha, 3 weeks after application
Outline: as §3

rice plant = test: Test Example 5: effect on crop by foliage application, plastic box (symbol b); conditions: 320 g/ha, 3 weeks after application
Outline: as §2

Stellaria media [12] = test: Test Example 4: herbicidal effect by soil treatment (symbol P); conditions: application herbicide amount 320 g/ha
Outline: as §1

`CCC(CC1CC(O)=C(c2c(C)cc(C)cc2OC)C1=O)=NOC` (mixture of isomers) [13-003] was tested, and the “R: Veronica persica, herbicidal effect grade” value (“R: Veronica persica” for short) (Veronica persica [1]) was 0 (Herbicidal ratio of 5% or lower (almost no effect)), the “f: beet, effect on crop grade” value (beet [2]) was 0 (Herbicidal ratio of 5% or lower (almost no effect)) and the “Q: Galium spurium, herbicidal effect grade” value (“Q: Galium spurium” below) (Galium spurium [3]) was 3 (Herbicidal ratio of 40% or higher and lower than 70%). The “c: corn, effect on crop grade” value (corn) was 5 (Herbicidal ratio of 90% or more (almost completely withered)), the “P: Stellaria media, herbicidal effect grade” value (“P: Stellaria media” for short) (Stellaria media [4]) was 1 (Herbicidal ratio of 5% or higher and lower than 20%) and the “G: Setaria viridis, herbicidal effect grade” value (shortened to “G: Setaria viridis”) (Setaria viridis) was 5 (Herbicidal ratio of 90% or more (almost completely withered)). For the same compound, the “J: Alopecurus myosuroides, herbicidal effect grade” value (from here on “J: Alopecurus myosuroides”) (Alopecurus myosuroides) was 5 (Herbicidal ratio of 90% or more (almost completely withered)), the “L: Apera spica-venti, herbicidal effect grade” value (“L: Apera spica-venti” below) (Apera spica-venti) was 5 (Herbicidal ratio of 90% or more (almost completely withered)) and the “O: Chenopodium album, herbicidal effect grade” value (from here on “O: Chenopodium album”) (Chenopodium album) was 0 (Herbicidal ratio of 5% or lower (almost no effect)). For the same compound, the “b (directly sowed rice plant) effect on crop grade” value [5] was 5 (Herbicidal ratio of 90% or more (almost completely withered)), the “F: Digitaria ciliaris, herbicidal effect grade” value (shortened to “F: Digitaria ciliaris”) (Digitaria ciliaris [6]) was 5 (Herbicidal ratio of 90% or more (almost completely withered)) and the “F: Digitaria ciliaris” value (Digitaria ciliaris [7]) was 5 (Herbicidal ratio of 90% or more (almost completely withered)). For the same compound, the “b: directly sowed rice plant, effect on crop grade” value (shortened to “b: directly sowed rice plant”) (rice) was 5 (Herbicidal ratio of 90% or more (almost completely withered)), the “Q: Galium spurium” value (Galium spurium [8]) was 0 (Herbicidal ratio of 5% or lower (almost no effect)) and the “M: Abutilon theophrasti, herbicidal effect grade” value (“M: Abutilon theophrasti” for short) (Abutilon theophrasti) was 4 (Herbicidal ratio of 70% or higher and lower than 90%). For the same compound, the “H: Echinochloa crus-galli var. crus-galli, herbicidal effect grade” value [9] was 5 (Herbicidal ratio of 90% or more (almost completely withered)), the “R: Veronica persica” value (Veronica persica [10]) was 1 (Herbicidal ratio of 5% or higher and lower than 20%) and the “K: Lolium multiflorum Lam., herbicidal effect grade” value (Lolium multiflorum Lam.) was 5 (Herbicidal ratio of 90% or more (almost completely withered)). The “g: rapeseed, effect on crop grade” value (rapeseed) was 3 (Herbicidal ratio of 40% or higher and lower than 70%), the “e: wheat, effect on crop grade” value (wheat) was 5 (Herbicidal ratio of 90% or more (almost completely withered)) and the “f: beet, effect on crop grade” value (beet [11]) was 0 (Herbicidal ratio of 5% or lower (almost no effect)). For the same compound, the “d: soybean, effect on crop grade” value (soybean) was 0 (Herbicidal ratio of 5% or lower (almost no effect)), the “I: Avena fatua, herbicidal effect grade” value (Avena fatua) was 5 (Herbicidal ratio of 90% or more (almost completely withered)) and the “b: directly sowed rice plant” value (rice plant) was 5 (Herbicidal ratio of 90% or more (almost completely withered)). The “P: Stellaria media” value (Stellaria media [12]) was 0 (Herbicidal ratio of 5% or lower (almost no effect)).

In the case of `CCC(CC1CC(O)=C(c2c(C)cc(-c3ccccc3)cc2OC)C1=O)=NOC` (mixture of isomers) [13-004], the “R: Veronica persica” value (Veronica persica [1]) is reported as 3 (Herbicidal ratio of 40% or higher and lower than 70%), the “f: beet, effect on crop grade” value (beet [2]) is reported as 0 (Herbicidal ratio of 5% or lower (almost no effect)) and the “Q: Galium spurium” value (Galium spurium [3]) is reported as 4 (Herbicidal ratio of 70% or higher and lower than 90%). The “c: corn, effect on crop grade” value (corn) was 5 (Herbicidal ratio of 90% or more (almost completely withered)), the “P: Stellaria media” value (Stellaria media [4]) was 2 (Herbicidal ratio of 20% or higher and lower than 40%) and the “G: Setaria viridis” value (Setaria viridis) was 5 (Herbicidal ratio of 90% or more (almost completely withered)). The “J: Alopecurus myosuroides” value (Alopecurus myosuroides) was 5 (Herbicidal ratio of 90% or more (almost completely withered)), the “L: Apera spica-venti” value (Apera spica-venti) was 5 (Herbicidal ratio of 90% or more (almost completely withered)) and the “O: Chenopodium album” value (Chenopodium album) was 4 (Herbicidal ratio of 70% or higher and lower than 90%). For the same compound, the “b (directly sowed rice plant) effect on crop grade” value [5] was 5 (Herbicidal ratio of 90% or more (almost completely withered)), the “F: Digitaria ciliaris” value (Digitaria ciliaris [6]) was 5 (Herbicidal ratio of 90% or more (almost completely withered)) and the “F: Digitaria ciliaris” value (Digitaria ciliaris [7]) was 5 (Herbicidal ratio of 90% or more (almost completely withered)). The “b: directly sowed rice plant” value (rice) was 5 (Herbicidal ratio of 90% or more (almost completely withered)), the “Q: Galium spurium” value (Galium spurium [8]) was 0 (Herbicidal ratio of 5% or lower (almost no effect)) and the “M: Abutilon theophrasti” value (Abutilon theophrasti) was 1 (Herbicidal ratio of 5% or higher and lower than 20%). For the same compound, the “H: Echinochloa crus-galli var. crus-galli, herbicidal effect grade” value [9] was 5 (Herbicidal ratio of 90% or more (almost completely withered)), the “R: Veronica persica” value (Veronica persica [10]) was 3 (Herbicidal ratio of 40% or higher and lower than 70%) and the “K: Lolium multiflorum Lam., herbicidal effect grade” value (Lolium multiflorum Lam.) was 5 (Herbicidal ratio of 90% or more (almost completely withered)). For the same compound, the “g: rapeseed, effect on crop grade” value (rapeseed) was 4 (Herbicidal ratio of 70% or higher and lower than 90%), the “e: wheat, effect on crop grade” value (wheat) was 5 (Herbicidal ratio of 90% or more (almost completely withered)) and the “f: beet, effect on crop grade” value (beet [11]) was 0 (Herbicidal ratio of 5% or lower (almost no effect)). The “d: soybean, effect on crop grade” value (soybean) was 1 (Herbicidal ratio of 5% or higher and lower than 20%), the “I: Avena fatua, herbicidal effect grade” value (Avena fatua) was 5 (Herbicidal ratio of 90% or more (almost completely withered)) and the “b: directly sowed rice plant” value (rice plant) was 5 (Herbicidal ratio of 90% or more (almost completely withered)). The “P: Stellaria media” value (Stellaria media [12]) was 1 (Herbicidal ratio of 5% or higher and lower than 20%).

With `CON=C(CC1CC(OC(=O)N2CCOCC2)=C(c2c(C)cc(C)cc2OC)C1=O)C1CC1` (mixture of isomers) [13-005] the “R: Veronica persica” value (Veronica persica [1]) was 0 (Herbicidal ratio of 5% or lower (almost no effect)), the “f: beet, effect on crop grade” value (beet [2]) was 0 (Herbicidal ratio of 5% or lower (almost no effect)) and the “Q: Galium spurium” value (Galium spurium [3]) was 0 (Herbicidal ratio of 5% or lower (almost no effect)). The “c: corn, effect on crop grade” value (corn) was 0 (Herbicidal ratio of 5% or lower (almost no effect)), the “P: Stellaria media” value (Stellaria media [4]) was 0 (Herbicidal ratio of 5% or lower (almost no effect)) and the “G: Setaria viridis” value (Setaria viridis) was 5 (Herbicidal ratio of 90% or more (almost completely withered)). The “J: Alopecurus myosuroides” value (Alopecurus myosuroides) was 4 (Herbicidal ratio of 70% or higher and lower than 90%), the “L: Apera spica-venti” value (Apera spica-venti) was 5 (Herbicidal ratio of 90% or more (almost completely withered)) and the “O: Chenopodium album” value (Chenopodium album) was 0 (Herbicidal ratio of 5% or lower (almost no effect)). The “b (directly sowed rice plant) effect on crop grade” value [5] was 5 (Herbicidal ratio of 90% or more (almost completely withered)), the “F: Digitaria ciliaris” value (Digitaria ciliaris [6]) was 5 (Herbicidal ratio of 90% or more (almost completely withered)) and the “F: Digitaria ciliaris” value (Digitaria ciliaris [7]) was 4 (Herbicidal ratio of 70% or higher and lower than 90%). The “b: directly sowed rice plant” value (rice) was 1 (Herbicidal ratio of 5% or higher and lower than 20%), the “Q: Galium spurium” value (Galium spurium [8]) was 0 (Herbicidal ratio of 5% or lower (almost no effect)) and the “M: Abutilon theophrasti” value (Abutilon theophrasti) was 0 (Herbicidal ratio of 5% or lower (almost no effect)). The “H: Echinochloa crus-galli var. crus-galli, herbicidal effect grade” value [9] was 1 (Herbicidal ratio of 5% or higher and lower than 20%), the “R: Veronica persica” value (Veronica persica [10]) was 0 (Herbicidal ratio of 5% or lower (almost no effect)) and the “K: Lolium multiflorum Lam., herbicidal effect grade” value (Lolium multiflorum Lam.) was 5 (Herbicidal ratio of 90% or more (almost completely withered)). The “g: rapeseed, effect on crop grade” value (rapeseed) was 0 (Herbicidal ratio of 5% or lower (almost no effect)), the “e: wheat, effect on crop grade” value (wheat) was 5 (Herbicidal ratio of 90% or more (almost completely withered)) and the “f: beet, effect on crop grade” value (beet [11]) was 0 (Herbicidal ratio of 5% or lower (almost no effect)). For the same compound, the “d: soybean, effect on crop grade” value (soybean) was 0 (Herbicidal ratio of 5% or lower (almost no effect)), the “I: Avena fatua, herbicidal effect grade” value (Avena fatua) was 5 (Herbicidal ratio of 90% or more (almost completely withered)) and the “b: directly sowed rice plant” value (rice plant) was 5 (Herbicidal ratio of 90% or more (almost completely withered)). The “P: Stellaria media” value (Stellaria media [12]) was 0 (Herbicidal ratio of 5% or lower (almost no effect)).
